In patent US20260183295A1, “METHODS AND COMPOSITIONS FOR TREATING CANCER” (Onconova Therapeutics, Inc., priority 2022, published 2026):

Assays:
[1] = tested on: PyMT cells; assay: Senescence-associated β-galactosidase staining, 48 hours; type: cell-based, mouse; details: compared to DMSO
Description: Following 48 hours of treatment, cells were stained for the senescence marker β-galactosidase.

[2] = molecular target: T1, NUAK1 (Homo sapiens, UniProt O60285); assay: NUAK1 In Vitro Kd, kinase binding assay (qPCR); details: second In Vitro column of Table 8
T1 sequence (O60285 1-661): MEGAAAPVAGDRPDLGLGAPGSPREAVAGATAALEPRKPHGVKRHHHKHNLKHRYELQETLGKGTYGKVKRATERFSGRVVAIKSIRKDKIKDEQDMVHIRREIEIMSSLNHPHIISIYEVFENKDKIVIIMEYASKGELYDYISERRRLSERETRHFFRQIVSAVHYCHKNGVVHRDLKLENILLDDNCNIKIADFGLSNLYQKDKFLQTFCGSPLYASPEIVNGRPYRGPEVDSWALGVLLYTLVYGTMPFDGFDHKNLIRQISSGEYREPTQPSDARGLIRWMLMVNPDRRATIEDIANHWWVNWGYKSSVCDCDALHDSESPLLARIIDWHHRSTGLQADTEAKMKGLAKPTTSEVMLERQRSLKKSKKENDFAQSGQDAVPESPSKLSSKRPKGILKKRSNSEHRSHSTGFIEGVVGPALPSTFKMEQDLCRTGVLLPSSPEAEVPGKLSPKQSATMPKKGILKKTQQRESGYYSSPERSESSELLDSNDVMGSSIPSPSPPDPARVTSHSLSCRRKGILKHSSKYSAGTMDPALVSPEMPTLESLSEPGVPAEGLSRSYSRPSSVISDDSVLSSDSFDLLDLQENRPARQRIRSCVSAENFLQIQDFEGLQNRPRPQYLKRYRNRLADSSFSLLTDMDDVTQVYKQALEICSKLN
Description: Kinase-tagged T7 phage strains were prepared in an E. coli host derived from the BL21 strain. E. coli were grown to log-phase and infected with T7 phage and incubated with shaking at 32° C. until lysis. The lysates were spun by centrifuge and filtered to remove cell debris. The remaining kinases were produced in HEK-293 cells and subsequently tagged with DNA for qPCR detection. […] The liganded beads were blocked with excess biotin and washed with blocking buffer (SeaBlock (Pierce), 1% BSA, 0.05% Tween 20, 1 mM DTT) to remove unbound ligand and to reduce non-specific binding. […] Test compounds were prepared as 111× stocks in 100% DMSO. Kds were determined using an 11-point 3-fold compound dilution series with three DMSO control points.
The compounds were then diluted directly into the assays such that the final concentration of DMSO was 0.9%. All reactions performed in polypropylene 384-well plate. Each was a final volume of 0.02 ml. […] The kinase concentration in the eluates was measured by qPCR. Binding constants (Kds) were calculated with a standard dose-response curve using the Hill equation: Response=Background+Signal−Background 1+(KdHill Slope/DoseHill Slope) The Hill Slope was set to −1. Curves were fitted using a non-linear least square fit with the Levenberg-Marquardt algorithm.

[3] = tested on: Hs578t cells; assay: Cancer cell growth, 48 hours; type: cell-based; details: 5 μM or 10 μM, compared to Comparator 1 (FIG. 1)
Description: At the end of 48 hours, growth of cells was measured using standard techniques.

[4] = tested on: p21; assay: Western blot, MDA-MB-231 cells, 24 hours; type: cell-based; details: 2.5, 5, 10 μM, versus Comparator 1, 2 and 4
[5] = tested on: MDA-MB-231 cells; assay: Transmission electron microscopy of cellular morphology; type: cell-based; details: 5 μM, 24 hours, compared to DMSO
Description: The effect of Compound 1 (5 μM) treatment for 24 hours on cellular morphology was assessed using transmission electron microscopy (TEM) and compared to DMSO. FIG. 27 and FIG. 28 show representative TEM images of MDA-MB-231 cells treated with DMSO or Compound 1.

[6] = tested on: Caspase 3/7; assay: Caspase 3/7 Glo assay, MDA-MB-231 cells, 24 hours; type: cell-based
Description: To determine how Compound 1 induces cell death, Caspase 3/7 activity was measured using the Caspase 3/7 Glo assay.
The effect of zVAD-FMK treatment on Caspase 3/7 activity was assessed.

[7] = tested on: PyMT cells; assay: MTT cell viability; type: cell-based, mouse; details: 24, 48 and 72 hours; Compound 1 2.5, 5, 10 μM; Comparator 1 5 μM
[8] = tested on: PyMT cells; assay: Annexin V/PI staining, apoptotic cells, 48 hours; type: cell-based, mouse; details: compared to Comparator 1 (5 μM) and Comparator 3 (1 μM)
[9] = tested on: CCL5; assay: qPCR of T-cell recruiting chemokine mRNA, PyMT cells; type: cell-based, mouse
[10] = tested on: PARP in HCC-1937; assay: PARP cleavage after 72 hours treatment; type: cell-based; details: HCC-1937 (TNBC)
Description: (§1) The effects on the different treatment conditions on BUB 1 levels and PARP cleavage were also assessed. For both MNA-MB-231 cells, Compound 1 alone or with HCQ or SBI decreased BUB1 levels and cleaved PARP with […] decreases in cell viability observed for all treatments except Compound 1+SBI in MMA-MB-231 cells. The effects of Compound 1 with or without autophagy inhibitors was less pronounced in HCC-1937 cells.

[11] = tested on: PARP in MDA-MB-231; assay: PARP cleavage after 72 hours treatment; type: cell-based; details: MDA-MB-231 (TNBC)
Description: as §1

[12] = tested on: PARP in MDA-MB-468; assay: PARP cleavage after 72 hours treatment; type: cell-based; details: MDA-MB-468 (TNBC)
Description: as §1

[13] = tested on: Hs578T spheroids; assay: Spheroid imaging (Hoechst, F-actin); type: cell-based; details: 5 μM, compared to DMSO, Comparator 1 and Comparator 2 (FIG. 18)
[14] = tested on: T-47D, HCC-1937, HS-578T, BT-474, MDA-MB-468, and MD-MB-453 cell lines; assay: MTT cell viability of breast cancer cell line panel versus comparators, 48 hrs (FIG. 17); type: cell-based
[15] = tested on: Cyclin D1; assay: Western blot, MDA-MB-231 cells, 24 hours; type: cell-based; details: 2.5, 5, 10 μM, versus Comparator 1, 2 and 4

CN1CCN(c2ccc(Nc3ncc4cc(C#N)c(=O)n(C5CCCC5)c4n3)cc2)CC1 [Compound 1, 8-cyclopentyl-2-((4-(4-methylpiperazin-1-yl)phenyl)amino)-7-oxo-7,8-dihydropyrido[2,3-d]pyrimidine-6-carbonitrile]
β-galactosidase staining (senescence) [1]: increased β-galactosidase staining | Kd [2]: 19 nM | growth of cells [3]: significantly inhibited | p21 levels [4]: decreasing | cellular morphology (TEM) [5]: extensive vacuolization | Caspase 3/7 activity ([6]; Compound 1, Comparator 1, 2 5 μM, Comparator 4 10 μM (FIG. 22)): modest increase | Caspase 3/7 activity ([6]; without zVAD-FMK, relative to DMSO (FIG. 26)): small increase | effect of zVAD-FMK on induced Caspase 3/7 activity ([6]; zVAD-FMK 20 μM (FIG. 26)): inhibited by zVAD-FMK treatment | cell death (MTT cell viability) [7]: increased cell death relative to DMSO | number of apoptotic cells (Annexin V/PI) [8]: increased numbers of apoptotic cells | time of peak CCL5 mRNA levels [9]: ~48 h | CCL5 mRNA levels ([9]; 24, 48 and 72 hours): large increase | PARP Cleavage [10]: No | PARP Cleavage [11]: Yes | PARP Cleavage [12]: Yes | spheroid size [13]: small decrease in spheroid size | dose dependence of cell death (MTT) ([14]; 2.5, 5.0, 10 μM, HCC-1937, Hs-578T, BT-474, MDA-MB-468, MDA-MB-453): dose-dependent effect | cell death (MTT), comparison of treatments ([14]; Comparator 4 10 μM, Comparator 1 and 2 5 μM, Compound 1 2.5, 5.0, 10 μM): greater potency in inducing cell death compared to both Comparator 1 and Comparator 2 | Cyclin D1 levels [15]: decreasing
